Measured values published in patent US10294202B2, “Pyrrolidinones as herbicides” (FMC Corporation, priority 2013, dated 2019).

What was measured:
pigweed = experiment: Test C pre-/postemergence herbicide test; assay type: in vivo, Amaranthus retroflexus
Outline: (§1)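 Herbicidal effect was judged by eye 13 to 15 days after treatment in the greenhouse, using a 0–100 scale against controls. Chemicals in a non-phytotoxic solvent with surfactant were sprayed onto planted loam/sand soil or onto plants 2 to 18 cm tall in a peat-based growing medium.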

wheat = experiment: Test A pre-/postemergence herbicide test; assay type: in vivo, Triticum aestivum
Outline: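 Both application timings used compounds in a non-phytotoxic solvent plus surfactant. Pre-emergence: soil sprayed directly after seeding into loam/sand. Post-emergence: foliage of 2–10 cm seedlings (1–2 leaves) sprayed. Injury rated ~10 days later, 0–100.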

rice = experiment: Test B flooded paddy test; assay type: in vivo, Oryza sativa; details: Flood, scale of 0 to 100 where 0 is no effect and 100 is complete control
Outline: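 Scored visually 0–100 (0 no effect, 100 complete control) versus controls after 13 to 15 greenhouse days. Treatment: compound added to paddy water kept 3 cm above soil, on 2-leaf-stage plants.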

wheat (winter wheat) = experiment: Test C pre-/postemergence herbicide test; assay type: in vivo, Triticum aestivum
Outline: as §1

foxtail, giant = experiment: Test C pre-/postemergence herbicide test; assay type: in vivo, Setaria faberii
Outline: as §1

galium = experiment: Test C pre-/postemergence herbicide test; assay type: in vivo, Galium aparine
Outline: as §1

[1] = Preemergence, 62 g ai/ha, scale 0 to 100
[2] = Preemergence, 125 g ai/ha, scale 0 to 100 (0 no effect, 100 complete control)
[3] = Postemergence, 125 g ai/ha, 0 to 100 scale, 0 no effect, 100 complete control
[4] = Postemergence, 500 g ai/ha, 0 to 100 scale (0 no effect, 100 complete control)
[5] = Preemergence, 125 g ai/ha, visual rating on 0 to 100 scale (0 no effect, 100 complete control)
[6] = preemergence, 500 g ai/ha, 0 to 100 scale
[7] = Preemergence, 31 g ai/ha, scale 0 to 100 (0 no effect, 100 complete control)
[8] = Preemergence, 250 g ai/ha, scale 0 to 100 (0 no effect, 100 complete control)
[9] = Preemergence, 31 g ai/ha, scale 0 to 100, 0 is no effect and 100 is complete control
[10] = Preemergence, 62 g ai/ha, scale 0 to 100 (0 no effect, 100 complete control)
[11] = Preemergence, 125 g ai/ha, scale 0 to 100
[12] = Postemergence, 31 g ai/ha, scale 0 (no effect) to 100 (complete control)
[13] = Postemergence, 62 g ai/ha, scale 0 to 100 (0 no effect, 100 complete control)
[14] = Postemergence, 125 g ai/ha, scale 0 to 100 (0 no effect, 100 complete control)
[15] = Postemergence, 250 g ai/ha, scale 0 to 100 (0 no effect, 100 complete control)
[16] = Postemergence, 1000 g ai/ha, 0 to 100 scale (0 no effect, 100 complete control)
[17] = Preemergence, 1000 g ai/ha, visual rating on 0 to 100 scale (0 no effect, 100 complete control), approx. 10 days

O=C1NCC(c2ccc(Cl)c(F)c2)C1C(=O)Nc1ccccc1F (stereo not drawn) [Compound 53]
Plant response rating, Pigweed (pigweed; [1]): 25
Plant response rating, Pigweed (pigweed; [2]): 25
Plant response rating, Wheat (wheat; [3]): 0
Plant response rating, Wheat (wheat; [4]): 0
Wheat plant response rating (wheat; [5]): 0
Plant response rating, Wheat (wheat; [6]): 20
Plant response rating, Rice (rice; 250 g ai/ha): 0
Plant response rating, Wheat (wheat (winter wheat); [1]): 0
Plant response rating, Wheat (wheat (winter wheat); [2]): 0
Foxtail, Giant plant response rating (foxtail, giant; [7]): 40
Plant response rating, Foxtail, Giant (foxtail, giant; [1]): 65
Plant response rating, Foxtail, Giant (foxtail, giant; [2]): 65
Plant response rating, Foxtail, Giant (foxtail, giant; [8]): 85
Galium plant response rating (galium; [7]): 0
Plant response rating, Galium (galium; [1]): 0
Plant response rating, Galium (galium; [2]): 0
Plant response rating, Galium (galium; [8]): 70

O=C1NCC(c2cccc(Br)c2)C1C(=O)Nc1ccccc1F (stereo not drawn) [Compound 307]
Pigweed plant response rating (pigweed; [9]): 0
Pigweed plant response rating (pigweed; [10]): 0
Plant response rating, Pigweed (pigweed; [11]): 40
Plant response rating (scale of 0 to 100), Pigweed (pigweed; Preemergence, 250 g ai/ha): 35
Plant response rating, Wheat (wheat; Postemergence, 125 g ai/ha, visual rating on 0 to 100 scale (0 no effect, 100 complete control), approx. 10 days): 0
Plant response rating, Wheat (wheat; [4]): 30
Plant response rating, Rice (rice; 500 g ai/ha): 0
Wheat plant response rating (wheat (winter wheat); [10]): 0
Plant response rating, Wheat (wheat (winter wheat); [11]): 5
Plant response rating (scale of 0 to 100), Wheat (wheat (winter wheat); Preemergence, 250 g ai/ha): 15
Foxtail, Giant plant response rating (foxtail, giant; [9]): 65
Foxtail, Giant plant response rating (foxtail, giant; [10]): 85
Plant response rating, Foxtail, Giant (foxtail, giant; [11]): 85
Plant response rating (scale of 0 to 100), Foxtail, Giant (foxtail, giant; Preemergence, 250 g ai/ha): 95
Galium plant response rating (galium; [9]): 0
Galium plant response rating (galium; [10]): 0
Plant response rating, Galium (galium; [11]): 100
Plant response rating (scale of 0 to 100), Galium (galium; Preemergence, 250 g ai/ha): 85

O=C1NCC(c2cc(F)c(F)c(F)c2)C1C(=O)Nc1ccccc1F (racemic) [Compound 34]
Plant response rating, Pigweed (pigweed; [12]): 0
Plant response rating, Pigweed (pigweed; [13]): 0
Plant response rating, Pigweed (pigweed; [14]): 0
Plant response rating, Pigweed (pigweed; [15]): 10
Plant response rating, Pigweed (pigweed; [1]): 0
Plant response rating, Pigweed (pigweed; [2]): 0
Plant response rating, Wheat (wheat; [16]): 70
Plant response rating, Wheat (wheat; [17]): 60
Plant response rating, Rice (rice; 250 g ai/ha): 0
Plant response rating, Wheat (wheat (winter wheat); [12]): 0
Plant response rating, Wheat (wheat (winter wheat); [13]): 0
Plant response rating, Wheat (wheat (winter wheat); [14]): 0
Plant response rating, Wheat (wheat (winter wheat); [15]): 0
Plant response rating, Wheat (wheat (winter wheat); [1]): 0
Plant response rating, Wheat (wheat (winter wheat); [2]): 35
Plant response rating, Foxtail, Giant (foxtail, giant; [12]): 0
Plant response rating, Foxtail, Giant (foxtail, giant; [13]): 5
Plant response rating, Foxtail, Giant (foxtail, giant; [14]): 5
Plant response rating, Foxtail, Giant (foxtail, giant; [15]): 35
Foxtail, Giant plant response rating (foxtail, giant; [7]): 90
Plant response rating, Foxtail, Giant (foxtail, giant; [1]): 95
Plant response rating, Foxtail, Giant (foxtail, giant; [2]): 98
Plant response rating, Foxtail, Giant (foxtail, giant; [8]): 98
Plant response rating, Galium (galium; [12]): 0
Plant response rating, Galium (galium; [13]): 0
Plant response rating, Galium (galium; [14]): 0
Plant response rating, Galium (galium; [15]): 10
Galium plant response rating (galium; [7]): 0
Plant response rating, Galium (galium; [1]): 0
Plant response rating, Galium (galium; [2]): 5
Plant response rating, Galium (galium; [8]): 60

O=C1NCC(c2cccc(Br)c2)C1C(=O)Nc1ccccc1F (stereo not drawn) [Compound 66]
Pigweed plant response rating (pigweed; [9]): 0
Plant response rating, Pigweed (pigweed; [1]): 0
Plant response rating, Pigweed (pigweed; [2]): 0
Plant response rating, Wheat (wheat; [3]): 0
Plant response rating, Wheat (wheat; [4]): 30
Wheat plant response rating (wheat; [5]): 0
Plant response rating, Wheat (wheat; [6]): 20
Plant response rating, Rice (rice; 250 g ai/ha): 0
Wheat plant response rating (wheat (winter wheat); [9]): 0
Plant response rating, Wheat (wheat (winter wheat); [1]): 0
Plant response rating, Wheat (wheat (winter wheat); [2]): 5
Foxtail, Giant plant response rating (foxtail, giant; [9]): 20
Plant response rating, Foxtail, Giant (foxtail, giant; [1]): 75
Plant response rating, Foxtail, Giant (foxtail, giant; [2]): 85
Plant response rating, Foxtail, Giant (foxtail, giant; [8]): 95
Galium plant response rating (galium; [9]): 0
Plant response rating, Galium (galium; [1]): 0
Plant response rating, Galium (galium; [2]): 0
Plant response rating, Galium (galium; [8]): 0

O=C1NCC(c2ccc3c(c2)OC(F)(F)O3)C1C(=O)Nc1cccc(F)c1F (stereo not drawn) [Compound 62]
Plant response rating, Pigweed (pigweed; [1]): 40
Plant response rating, Pigweed (pigweed; [2]): 70
Plant response rating, Wheat (wheat; [3]): 20
Plant response rating, Wheat (wheat; [4]): 60
Wheat plant response rating (wheat; [5]): 0
Plant response rating, Wheat (wheat; [6]): 0
Plant response rating, Rice (rice; 250 g ai/ha): 0
Plant response rating, Wheat (wheat (winter wheat); [1]): 0
Plant response rating, Wheat (wheat (winter wheat); [2]): 0
Foxtail, Giant plant response rating (foxtail, giant; [7]): 65
Plant response rating, Foxtail, Giant (foxtail, giant; [1]): 80
Plant response rating, Foxtail, Giant (foxtail, giant; [2]): 85
Plant response rating, Foxtail, Giant (foxtail, giant; [8]): 85
Galium plant response rating (galium; [7]): 0
Plant response rating, Galium (galium; [1]): 0
Plant response rating, Galium (galium; [2]): 85
Plant response rating, Galium (galium; [8]): 90

O=C1NCC(c2cccc(OC(F)(F)F)c2)C1C(=O)Nc1cccc(F)c1F (stereo not drawn) [Compound 68]
Pigweed plant response rating (pigweed; [9]): 45
Plant response rating, Pigweed (pigweed; [1]): 75
Plant response rating, Pigweed (pigweed; [2]): 85
Plant response rating, Wheat (wheat; [3]): 0
Plant response rating, Wheat (wheat; [4]): 20
Wheat plant response rating (wheat; [5]): 0
Plant response rating, Wheat (wheat; [6]): 20
Plant response rating, Rice (rice; 250 g ai/ha): 25
Wheat plant response rating (wheat (winter wheat); [9]): 0
Plant response rating, Wheat (wheat (winter wheat); [1]): 5
Plant response rating, Wheat (wheat (winter wheat); [2]): 30
Foxtail, Giant plant response rating (foxtail, giant; [9]): 85
Plant response rating, Foxtail, Giant (foxtail, giant; [1]): 90
Plant response rating, Foxtail, Giant (foxtail, giant; [2]): 90
Plant response rating, Foxtail, Giant (foxtail, giant; [8]): 95
Galium plant response rating (galium; [9]): 0
Plant response rating, Galium (galium; [1]): 5
Plant response rating, Galium (galium; [2]): 90
Plant response rating, Galium (galium; [8]): 90

O=C1NCC(c2ccc(C(F)(F)F)nc2)C1C(=O)Nc1ccccc1F (racemic) [Compound 262]
Pigweed plant response rating (pigweed; [9]): 0
Pigweed plant response rating (pigweed; [10]): 0
Plant response rating, Pigweed (pigweed; [2]): 0
Plant response rating (scale of 0 to 100), Pigweed (pigweed; Preemergence, 250 g ai/ha): 5
Plant response rating, Wheat (wheat; Postemergence, 125 g ai/ha, 0 to 100 scale, 0 is no effect, 100 is complete control): 0
Plant response rating, Wheat (wheat; [4]): 0
Plant response rating, Wheat (wheat; Preemergence, 125 g ai/ha, 0 to 100 scale where 0 is no effect and 100 is complete control): 0
Plant response rating, Wheat (wheat; preemergence, 500 g ai/ha, 0 to 100 scale, 0 is no effect and 100 is complete control): 0
Plant response rating, Rice (rice; 1000 g ai/ha): 0
Wheat plant response rating (wheat (winter wheat); [9]): 0
Wheat plant response rating (wheat (winter wheat); [10]): 0
Plant response rating (scale of 0 to 100), Wheat (wheat (winter wheat); Preemergence, 250 g ai/ha): 0
Foxtail, Giant plant response rating (foxtail, giant; [9]): 20
Foxtail, Giant plant response rating (foxtail, giant; [10]): 70
Plant response rating, Foxtail, Giant (foxtail, giant; [2]): 95
Plant response rating (scale of 0 to 100), Foxtail, Giant (foxtail, giant; Preemergence, 250 g ai/ha): 95
Galium plant response rating (galium; [9]): 0
Galium plant response rating (galium; [10]): 40
Plant response rating, Galium (galium; [2]): 60
Plant response rating (scale of 0 to 100), Galium (galium; Preemergence, 250 g ai/ha): 85

Cc1ccccc1NC(=O)C1C(=O)NCC1c1cc(F)c(F)c(F)c1 (racemic) [Compound 35]
Plant response rating, Pigweed (pigweed; [1]): 0
Plant response rating, Pigweed (pigweed; [2]): 0
Plant response rating, Wheat (wheat; [16]): 40
Plant response rating, Wheat (wheat; [17]): 0
Plant response rating, Rice (rice; 250 g ai/ha): 0
Plant response rating, Wheat (wheat (winter wheat); [1]): 0
Plant response rating, Wheat (wheat (winter wheat); [2]): 10
Foxtail, Giant plant response rating (foxtail, giant; [7]): 80
Plant response rating, Foxtail, Giant (foxtail, giant; [1]): 90
Plant response rating, Foxtail, Giant (foxtail, giant; [2]): 98
Plant response rating, Foxtail, Giant (foxtail, giant; [8]): 98
Galium plant response rating (galium; [7]): 0
Plant response rating, Galium (galium; [1]): 0
Plant response rating, Galium (galium; [2]): 5
Plant response rating, Galium (galium; [8]): 30
